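96-well plates; 48 h exposure; 5 concentrations. Endpoints by linear interpolation between flanking doses. Not reached: highest tested concentration assigned. GI50 marks 50% less growth.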 The source made the active and inactive calls. Rule as the data show it: active = GI50 up to about 1.1 µM and inactive = higher.
What was measured:
Assay in all cases: inhibition of tumour cell growth, NCI panel, 48 h
[1] = test system: 786-0
[2] = test system: A498
[3] = test system: A549
[4] = test system: ACHN
[5] = test system: BT-549
[6] = test system: CAKI-1
[7] = test system: CCRF-CEM
[8] = test system: COLO 205
[9] = test system: EKVX
[10] = test system: HCC 2998
[11] = test system: HCT-116
[12] = test system: HCT-15
[13] = test system: HL-60
[14] = test system: HOP-62
[15] = test system: HOP-92
[16] = test system: HT-29
[17] = test system: Hs-578T
[18] = test system: IGROV-1
[19] = test system: K562
[20] = test system: KM12
[21] = test system: LOX IMVI
[22] = test system: M14
[23] = test system: MCF7
[24] = test system: MDA-MB-231
[25] = test system: MDA-MB-435
[26] = test system: MDA-N
[27] = test system: MOLT-4
[28] = test system: Malme-3M
[29] = test system: NCI-H226
[30] = test system: NCI-H23
[31] = test system: NCI-H460
[32] = test system: NCI-H522
[33] = test system: NCI/ADR-RES
[34] = test system: OVCAR-3
[35] = test system: OVCAR-4
[36] = test system: OVCAR-5
[37] = test system: OVCAR-8
[38] = test system: PC-3
[39] = test system: RPMI-8226
[40] = test system: RXF 393
[41] = test system: SF-268
[42] = test system: SF-295
[43] = test system: SK-MEL-28
[44] = test system: SK-MEL-2
[45] = test system: SK-MEL-5
[46] = test system: SK-OV-3
[47] = test system: SN12C
[48] = test system: SNB-19
[49] = test system: SNB-75
[50] = test system: SR
[51] = test system: SW-620
[52] = test system: TK-10
[53] = test system: U-251
[54] = test system: UACC-257
[55] = test system: UO-31
[56] = test system: DU-145
[57] = test system: SF-539
[58] = test system: UACC-62

## O=c1cnc2cc3ccccc3cc2[nH]1
[1]
  GI50: > 100 µM (inactive)
[2]
  GI50: > 100 µM (inactive)
[3]
  GI50: > 100 µM (inactive)
[4]
  GI50: > 100 µM (inactive)
[5]
  GI50: > 100 µM (inactive)
[6]
  GI50: > 100 µM (inactive)
[7]
  GI50: > 100 µM (inactive)
[8]
  GI50: > 100 µM (inactive)
[9]
  GI50: 1.57 µM (inactive)
[10]
  GI50: > 100 µM (inactive)
[11]
  GI50: > 100 µM (inactive)
[12]
  GI50: > 100 µM
[13]
  GI50: > 100 µM (inactive)
[14]
  GI50: > 100 µM (inactive)
[15]
  GI50: > 100 µM (inactive)
[16]
  GI50: > 100 µM (inactive)
[17]
  GI50: > 100 µM (inactive)
[18]
  GI50: > 100 µM (inactive)
[19]
  GI50: > 100 µM (inactive)
[20]
  GI50: > 100 µM (inactive)
[21]
  GI50: > 100 µM (inactive)
[22]
  GI50: > 100 µM (inactive)
[23]
  GI50: > 100 µM (inactive)
[24]
  GI50: 75.7 µM (inactive)
[25]
  GI50: > 100 µM (inactive)
[26]
  GI50: > 100 µM (inactive)
[27]
  GI50: > 100 µM (inactive)
[28]
  GI50: > 100 µM (inactive)
[29]
  GI50: > 100 µM (inactive)
[30]
  GI50: > 100 µM (inactive)
[31]
  GI50: > 100 µM (inactive)
[32]
  GI50: > 100 µM (inactive)
[33]
  GI50: > 100 µM (inactive)
[34]
  GI50: > 100 µM (inactive)
[35]
  GI50: > 100 µM (inactive)
[36]
  GI50: > 100 µM (inactive)
[37]
  GI50: > 100 µM (inactive)
[38]
  GI50: > 100 µM (inactive)
[39]
  GI50: > 100 µM (inactive)
[40]
  GI50: > 100 µM (inactive)
[41]
  GI50: > 100 µM (inactive)
[42]
  GI50: > 100 µM (inactive)
[43]
  GI50: > 100 µM (inactive)
[44]
  GI50: > 100 µM (inactive)
[45]
  GI50: > 100 µM (inactive)
[46]
  GI50: > 100 µM (inactive)
[47]
  GI50: > 100 µM (inactive)
[48]
  GI50: 71.6 µM (inactive)
[49]
  GI50: 37.8 µM (inactive)
[50]
  GI50: > 100 µM (inactive)
[51]
  GI50: > 100 µM (inactive)
[52]
  GI50: > 100 µM (inactive)
[53]
  GI50: > 100 µM (inactive)
[54]
  GI50: > 100 µM (inactive)
[55]
  GI50: 46.9 µM (inactive)

## Cc1ccccc1-c1nc2c(N)nc(N)nc2nc1N
[1]
  GI50: 7.23 µM (inactive)
[3]
  GI50: 3.22 µM (inactive)
[4]
  GI50: 5.6 µM (inactive)
[5]
  GI50: > 100 µM (inactive)
[6]
  GI50: 9.35 µM (inactive)
[7]
  GI50: 4.74 µM (inactive)
[8]
  GI50: 25.5 µM (inactive)
[56]
  GI50: 8.17 µM (inactive)
[9]
  GI50: 38.1 µM (inactive)
[10]
  GI50: 25.2 µM (inactive)
[11]
  GI50: 1.67 µM (inactive)
[12]
  GI50: 4.15 µM
[13]
  GI50: > 100 µM (inactive)
[14]
  GI50: 25.9 µM (inactive)
[16]
  GI50: > 100 µM (inactive)
[17]
  GI50: > 100 µM (inactive)
[18]
  GI50: 6.82 µM (inactive)
[19]
  GI50: 0.723 µM (active)
[20]
  GI50: 29.8 µM (inactive)
[21]
  GI50: 3.44 µM (inactive)
[22]
  GI50: > 100 µM (inactive)
[23]
  GI50: 30.2 µM (inactive)
[24]
  GI50: 3.3 µM (inactive)
[25]
  GI50: 5.36 µM (inactive)
[26]
  GI50: 4.56 µM (inactive)
[27]
  GI50: 3.77 µM (inactive)
[30]
  GI50: 4.95 µM (inactive)
[31]
  GI50: 3.69 µM (inactive)
[32]
  GI50: 22.6 µM (inactive)
[33]
  GI50: 27 µM (inactive)
[34]
  GI50: > 100 µM (inactive)
[35]
  GI50: > 100 µM (inactive)
[36]
  GI50: 39.9 µM (inactive)
[37]
  GI50: 14.1 µM (inactive)
[38]
  GI50: 4.46 µM (inactive)
[39]
  GI50: > 100 µM (inactive)
[41]
  GI50: 8.38 µM (inactive)
[42]
  GI50: 12.8 µM (inactive)
[57]
  GI50: 22.5 µM (inactive)
[43]
  GI50: 67.9 µM (inactive)
[44]
  GI50: > 100 µM (inactive)
[45]
  GI50: > 100 µM (inactive)
[46]
  GI50: > 100 µM (inactive)
[47]
  GI50: 6.84 µM (inactive)
[48]
  GI50: 44.3 µM (inactive)
[49]
  GI50: 22.3 µM (inactive)
[50]
  GI50: 62.7 µM (inactive)
[51]
  GI50: 4.86 µM (inactive)
[52]
  GI50: > 100 µM (inactive)
[53]
  GI50: 4.33 µM (inactive)
[54]
  GI50: 86.3 µM (inactive)
[58]
  GI50: 4.91 µM (inactive)
[55]
  GI50: 12 µM (inactive)

— ChEMBL document CHEMBL1201862, “PubChem BioAssay data set” (2004)
